Experimental data published in ChEMBL document CHEMBL1777696, “Anti-inflammatory activity of constituents from Glechoma hederacea var. longituba” (Bioorg Med Chem Lett, 2011).
Calls of active or inactive are those of the source. The calls are words filed in the database; no cut-off is given here.

Assays:
HepG2 [1] = assay: Inhibition of TNF-alpha-induced NF-kappaB transactivation expressed in human HepG2 cells at 10 uM preincubated 1 hr before TNFalpha challenge measured after 1 hr by luciferase reporter gene assay; assay type: cell-based
HepG2 [2] = assay: Inhibition of TNF-alpha-induced iNOS mRNA expression in human HepG2 cells expressing NF-kappaB preincubated 1 hr before TNFalpha challenge measured after 6 hrs by RT-PCR analysis; assay type: functional, cell-based
HepG2 [3] = assay: Inhibition of TNF-alpha-induced COX2 mRNA expression in human HepG2 cells expressing NF-kappaB preincubated 1 hr before TNFalpha challenge measured after 6 hrs by RT-PCR analysis; assay type: functional, cell-based
HepG2 [4] = assay: Inhibition of TNF-alpha-induced NF-kappaB transactivation expressed in human HepG2 cells at 20 uM preincubated 1 hr before TNFalpha challenge measured after 1 hr by luciferase reporter gene assay; assay type: cell-based
HepG2 [5] = assay: Cytotoxicity against human HepG2 cells up to 20 uM after 24 hrs by MTS assay; assay type: cell-based; conditions: hepg2, 24 h
HepG2 [6] = assay: Inhibition of TNF-alpha-induced NF-kappaB transactivation expressed in human HepG2 cells at 0.1 to 20 uM preincubated 1 hr before TNFalpha challenge measured after 1 hr by luciferase reporter gene assay; assay type: cell-based

Structure (SMILES) | inhibition (HepG2 [1]) | inhibition (HepG2 [2]) | inhibition (HepG2 [3]) | inhibition (HepG2 [4]) | Activity (HepG2 [5]) | inhibition (HepG2 [6])
COC(=O)[C@@H](Cc1ccc(O)c(O)c1)OC(=O)/C=C/c1ccc(OC)c(O)c1 | 28.7% | Dose-dependent effect | Dose-dependent effect | 45.4% | Non-toxic | –
O=C(OCc1ccccc1)c1ccc(O)c(O[C@@H]2O[C@H](CO)[C@@H](O)[C@H](O)[C@H]2O)c1 | – | – | – | – | Non-toxic | Active
COc1cc(/C=C/C(=O)O[C@H](Cc2ccc(O)c(O)c2)C(=O)O)ccc1O | – | – | – | – | Non-toxic | Active
CCOC(=O)[C@@H](Cc1ccc(O)c(O)c1)OC(=O)/C=C/c1ccc(O)c(O)c1 [ETHYL ROSMARINATE] | – | Dose-dependent effect | Dose-dependent effect | 57% | Non-toxic | –
COC(=O)[C@@H](Cc1ccc(O)c(O)c1)OC(=O)/C=C/c1ccc(O)c(O)c1 [METHYL ROSMARINATE] | – | Dose-dependent effect | Dose-dependent effect | 44.3% | Non-toxic | –
O=C(/C=C/c1ccc(O)c(O)c1)O[C@H](Cc1ccc(O)c(O)c1)C(=O)O [ROSMARINIC ACID] | – | – | – | 22.7% | Non-toxic | –
